Test results as given in patent US20230212164A1, “ANNULATED 2-AMINO-3-CYANO THIOPHENES AND DERIVATIVES FOR THE TREATMENT OF CANCER” (BOEHRINGER INGELHEIM INTERNATIONAL GMBH, priority 2020, published 2023).

Assays:
[1] = target: T1, protein-protein interaction between SOS1 and KRAS G12C (Homo sapiens, UniProt P01116, C118S/C51S/C80L/G12C); test: KRAS::SOS1 AlphaScreen binding assay
T1 construct: His6 (N)

[2] = system: pERK (Thr202/Tyr204) in NCI-H358_Cas9_SOS2 (SOS2 knocked); test: ERK phosphorylation assay 2 (AlphaLISA SureFire Ultra p-ERK1/2); settings: read-out: IC50 H358 pERK, ERK phosphorylation assay 2 (values marked with *)
Protocol: ERK Phosphorylation Assay
Low IC50 values in this assay setting are indicative of high potency of the compounds according to the invention.
GFP positive cells were collected and further expanded. These GFP-positive cell pools were single-cell diluted and SOS2 knock-out clones were identified via Western-blot and genomic DNA sequencing analysis.
Materials Used for the Assay:
AlphaLISA SureFire Ultra p-ERK1/2 (Thr202/Tyr204) Assay Kit (ALSU-PERK-A500)
Cells are seeded at 40,000 cells per well in /60 μL of RPMI with 10% FBS, non-essential amino acids, pyruvate and glutamax in Greiner TC 384 plates. The cells are incubated for 1 h at room temperature and then incubated overnight in an incubator at 37° C. and 5% CO2 in a humidified atmosphere. 60 nL compound solution (10 mM DMSO stock solution) is then added using a Labcyte Echo 550 device. After a 1 h incubation in the aforementioned incubator the medium is removed after centrifugation and the cells lysed by addition of 20 μL of 1.6-fold lysis buffer from the AlphaLISA SureFire Ultra pERK1/2 (Thr202/Tyr204) Assay Kit with added protease inhibitors, 100 nM trametinib+100 nM staurosporine. After 20 minutes of incubation at room temperature with shaking, 6 μL of each lysate sample is transferred to a 384-well Proxiplate and analyzed for pERK (Thr202/Tyr204) with the AlphaLISA SureFire Ultra pERK1/2 (Thr202/Tyr204) Assay Kit. 3 μL Acceptor Mix and 3 μL Donor Mix are added under subdued light and incubated for 2 h at room temperature in the dark, before the signal is measured on a PerkinElmer Envision HTS Multilabel Reader. The raw data were imported into and analyzed with the Boehringer Ingelheim proprietary software MegaLab (curve fitting based on the program PRISM, GraphPad Inc.).

[3] = target: KRASG12-dependent Ba/F3 cells (Homo sapiens, UniProt P01116, G12C, cells depend on it); test: Ba/F3 cell model proliferation assay (AlamarBlue, 72 h); assay type: cell-based; settings: Ba/F3 cells transduced with KRASG12C, read-out: IC50 Ba/F3 KRASG12C
Chain of KRASG12-dependent Ba/F3 cells (P01116 whole entry G12C): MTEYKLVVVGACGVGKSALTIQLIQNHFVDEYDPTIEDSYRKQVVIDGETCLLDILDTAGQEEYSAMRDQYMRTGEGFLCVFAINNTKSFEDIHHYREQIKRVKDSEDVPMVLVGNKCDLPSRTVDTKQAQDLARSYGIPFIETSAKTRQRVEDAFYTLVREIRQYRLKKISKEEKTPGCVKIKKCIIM
Protocol: Ba/F3 Cell Model Generation and Proliferation Assay
Plasmids containing KRASG12 mutants were obtained from GeneScript. To generate KRASG12-dependent Ba/F3 models, Ba/F3 cells were transduced with retroviruses containing vectors that harbor KRASG12 isoforms. Platinum-E cells (Cell Biolabs) were used for retrovirus packaging. Retrovirus was added to Ba/F3 cells. To ensure infection, 4 μg/mL polybrene was added and cells were spinfected. […] Cells with an infection efficiency of 10% to 20% were further cultivated and puromycin selection with 1 μg/mL was initiated. As a control, parental Ba/F3 cells were used to show selection status. Selection was considered successful when parental Ba/F3 cells cultures died. To evaluate the transforming potential of KRASG12 mutations, the growth medium was no longer supplemented with IL-3. Ba/F3 cells harboring the empty vector were used as a control. Approximately ten days before conducting the experiments, puromycin was left out.
All treatments were performed in technical duplicates. The assay is run using a fully automated robotic system. Treated cells were incubated for 72 h at 37° C. with 5% CO2.
AlamarBlue™ (ThermoFisher), a viability stain, was added and fluorescence measured in the PerkinElmer Envision HTS Multilabel Reader.

T1 sequence (P01116 1-169 isoform P01116-2 G12C/C51S/C80L/C118S): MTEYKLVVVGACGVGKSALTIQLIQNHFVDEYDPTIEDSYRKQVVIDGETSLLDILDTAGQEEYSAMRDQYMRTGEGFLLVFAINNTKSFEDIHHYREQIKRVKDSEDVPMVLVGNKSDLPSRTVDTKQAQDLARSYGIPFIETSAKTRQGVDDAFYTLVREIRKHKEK

C=CC(=O)N1CCN(c2cc(-c3noc([C@@]4(C)CCCc5sc(N)c(C#N)c54)n3)nc(O[C@@H](C)[C@@H]3CCCN3C)n2)C2CCCC21 (stereo partly drawn) [Ia-60]
IC50 ([1]; Table 36): 1.7 nM | IC50 [2]: 2.8 nM | GI50 [3]: 5.9 nM

C=CC(=O)N1[C@H](C)CN(c2cc(-c3noc([C@@]4(C)CCCc5sc(N)c(C#N)c54)n3)nc(O[C@@H](C)[C@@H]3CCCN3C)n2)C[C@H]1C [Ia-56]
IC50 ([1]; Table 36): 105 nM | IC50 [2]: 62.1 nM | GI50 [3]: 303 nM

C=CC(=O)N1CCN(c2cc(-c3noc([C@@]4(C)CCCc5sc(N)c(C#N)c54)n3)nc(OC3CCC4CCN(C)C43)n2)CC1 (stereo partly drawn) [Ia-48]
IC50 ([1]; Table 36): 8 nM | IC50 [2]: 21.3 nM | GI50 [3]: 97.6 nM

C=CC(=O)N1CCN(c2cc(-c3noc(C4(C)CCc5sc(N)c(C#N)c54)n3)nc(O[C@@H](C)[C@@H]3CCCN3C)n2)CC1 (stereo partly drawn) [Ia-134]
IC50 ([1]; Table 36): 3 nM | IC50 [2]: 5.6 nM | GI50 [3]: 15.4 nM

C=CC(=O)N1CCN(c2cc(-c3noc([C@@]4(C)CCCc5sc(N)c(C#N)c54)n3)nc(OC[C@@H]3CC4(CC4)CN3C)n2)CC1 [Ia-72]
IC50 ([1]; Table 36): 7 nM | IC50 [2]: 50.9 nM | GI50 [3]: 77.8 nM

C=CC(=O)N1CCN(c2nc(O[C@@H](C)[C@@H]3CCCN3C)nc(-c3noc([C@@]4(C)CCCc5sc(N)c(C#N)c54)n3)n2)CC1 [Ia-139]
IC50 ([1]; Table 36): 1.5 nM | IC50 [2]: 1.4 nM | GI50 [3]: 2.1 nM

C=CC(=O)N1C[C@H](Oc2cc(O[C@@H](C)[C@@H]3CCCN3C)nc(-c3noc([C@@]4(C)CCCc5sc(N)c(C#N)c54)n3)c2)[C@H]1C [Ia-85]
IC50 ([1]; Table 36): 1.6 nM | IC50 [2]: 0.7 nM | GI50 [3]: 0.7 nM

C=CC(=O)N1CCN(c2cc(-c3noc([C@@]4(C)CCCc5sc(N)c(C#N)c54)n3)nc(O[C@@H](C)[C@@H]3CCCN3C3CCN(C)CC3)n2)CC1 [Ia-135]
IC50 ([1]; Table 36): 2 nM | IC50 [2]: 9.6 nM | GI50 [3]: 25.4 nM

C=CC(=O)N1CCN(c2cc(O[C@@H](C)[C@@H]3CCCN3C)nc(-c3noc([C@@]4(C)CCCc5sc(N)c(C#N)c54)n3)c2)CC12CCCC2 [Ia-84]
IC50 ([1]; Table 36): 3 nM | IC50 [2]: 11 nM | GI50 [3]: 9.9 nM

COC/C=C\C(=O)N1CCN(c2cc(O[C@@H](C)[C@@H]3CCCN3C)nc(-c3noc([C@@]4(C)CCCc5sc(N)c(C#N)c54)n3)n2)CC12CC2 [Ia-161]
IC50 ([1]; Table 37): 21 nM | IC50 [2]: 26.5 nM | GI50 [3]: 162 nM

COC/C=C/C(=O)N1CCN(c2cc(-c3noc([C@@]4(C)CCCc5sc(N)c(C#N)c54)n3)nc(O[C@@H](C)[C@@H]3CCCN3C)n2)CC1 [Ia-157]
IC50 ([1]; Table 37): 16 nM | IC50 [2]: 238 nM | GI50 [3]: 1520 nM

C=CC(=O)N1CCN(c2cc(O[C@@H](C)[C@@H]3CCCN3C)nc(-c3noc([C@@]4(C)CCCc5sc(N)c(C#N)c54)n3)c2)CC12CCC2 [Ia-83]
IC50 ([1]; Table 36): 2 nM | IC50 [2]: 10.2 nM | GI50 [3]: 7.4 nM

C=CC(=O)N1CCN(c2cc(-c3noc([C@@]4(C)CCCc5sc(N)c(C#N)c54)n3)nc(O[C@@H](C)[C@@H]3CCCN3C)n2)C(C)C1C (stereo partly drawn) [Ia-53]
IC50 ([1]; Table 36): 1.8 nM | IC50 [2]: 3.1 nM | GI50 [3]: 4.3 nM

C/C=C/C(=O)N1CCN(c2cc(-c3noc([C@@]4(C)CCCc5sc(N)c(C#N)c54)n3)nc(O[C@@H](C)[C@@H]3CCCN3C)n2)CC1 [Ia-155]
IC50 ([1]; Table 37): 10 nM | IC50 [2]: 39.8 nM | GI50 [3]: 271 nM

C=CC(=O)N1CCC(Oc2cc(-c3noc(C4(C)CCCc5sc(N)c(C#N)c54)n3)nc(N3CCC4(CCN(C)CC4)CC3)c2)CC1 (stereo not drawn) [Ia-78]
IC50 ([1]; Table 36): 155 nM | IC50 [2]: 458 nM | GI50 [3]: 702 nM

C=CC(=O)N1CCN(c2cc(O[C@@H](C)[C@@H]3CCCN3C)nc(-c3noc([C@@]4(C)CCCc5sc(N)c(C#N)c54)n3)c2)CC1 [Ia-26]
IC50 ([1]; Table 36): 1.9 nM | IC50 [2]: 1.5 nM | GI50 [3]: 3.3 nM

CC#CC(=O)N1CCN(c2cc(O[C@@H](C)[C@@H]3CCCN3C)nc(-c3noc([C@@]4(C)CCCc5sc(N)c(C#N)c54)n3)n2)CC12CC2 [Ia-165]
IC50 ([1]; Table 38): 4 nM | IC50 [2]: 4 nM | GI50 [3]: 12.5 nM

C=CC(=O)N1CCN(c2cc(-c3noc([C@@]4(C)CCCc5sc(N)c(C#N)c54)n3)nc(O[C@@H](C)[C@@H]3CCCN3C)n2)CC12CC2 [Ia-57]
IC50 ([1]; Table 36): 1.5 nM | IC50 [2]: 0.9 nM | GI50 [3]: 5.9 nM

C=CC(=O)N1CCN(c2cc(-c3noc([C@@]4(C)CCCc5sc(N)c(C#N)c54)n3)nc(OC[C@@H]3C[C@@H]4C[C@@H]4N3C)n2)CC1 [Ia-71]
IC50 ([1]; Table 36): 3 nM | IC50 [2]: 21.4 nM | GI50 [3]: 23.7 nM

C[C@H](Oc1nc(-c2noc([C@@]3(C)CCCc4sc(N)c(C#N)c43)n2)cc(N2CCN(C(=O)/C=C/CN3CCOCC3)CC2)n1)[C@@H]1CCCN1C [Ia-158]
IC50 ([1]; Table 37): 4 nM | IC50 [2]: 103 nM | GI50 [3]: 467 nM

C=CC(=O)N1CCN(c2cc(-c3noc([C@@]4(C)CCCc5sc(N)c(C#N)c54)n3)nc(O[C@@H](C)[C@@H]3CCCN3C)n2)C[C@H]1C [Ia-63]
IC50 ([1]; Table 36): 2.6 nM | IC50 [2]: 10.9 nM | GI50 [3]: 15 nM

C=CC(=O)N1CCN(c2cc(O[C@@H](C)[C@@H]3CCCN3C)nc(-c3noc([C@@]4(C)CCCc5sc(N)c(C#N)c54)n3)n2)CC1 [Ia-136]
IC50 ([1]; Table 36): 1.4 nM | IC50 [2]: 0.9 nM | GI50 [3]: 2 nM

C=CC(=O)N1CCN(c2cc(-c3noc([C@@]4(C)CCCc5sc(N)c(C#N)c54)n3)nc(O[C@@H](C)[C@@H]3CC[C@H](C)N3C)n2)CC1 [Ia-137]
IC50 ([1]; Table 36): 1.8 nM | IC50 [2]: 0.7 nM | GI50 [3]: 0.5 nM

C=CC(=O)N1CCN(c2cc(-c3noc([C@@]4(C)CCCc5sc(N)c(C#N)c54)n3)nc(OC3C4CC5CN(C)C3C5C4)n2)CC1 (stereo partly drawn) [Ia-50]
IC50 ([1]; Table 36): 11 nM | IC50 [2]: 121 nM | GI50 [3]: 496 nM

C=CC(=O)N1CCCN(c2cc(-c3noc([C@@]4(C)CCCc5sc(N)c(C#N)c54)n3)nc(O[C@@H](C)[C@@H]3CCCN3C)n2)[C@@H](C)C1 [Ia-58]
IC50 ([1]; Table 36): 319 nM | IC50 [2]: 300 nM | GI50 [3]: 3480 nM

C/C=C/C(=O)N1CCN(c2cc(-c3noc([C@@]4(C)CCCc5sc(N)c(C#N)c54)n3)nc(O[C@@H](C)[C@@H]3CCCN3C)n2)CC12CC2 [Ia-163]
IC50 ([1]; Table 37): 22 nM | IC50 [2]: 81.3 nM | GI50 [3]: 431 nM

CC#CC(=O)N1CCN(c2cc(-c3noc([C@@]4(C)CCCc5sc(N)c(C#N)c54)n3)nc(O[C@@H](C)[C@@H]3CCCN3C)n2)C2CCCC21 (stereo partly drawn) [Ia-167]
IC50 ([1]; Table 38): 15 nM | IC50 [2]: 77.2 nM | GI50 [3]: 189 nM

C=CC(=O)N1CC[C@@H](Oc2cc(O[C@@H](C)[C@@H]3CCCN3C)nc(-c3noc([C@@]4(C)CCCc5sc(N)c(C#N)c54)n3)c2)C1 [Ia-81]
IC50 ([1]; Table 36): 1.6 nM | IC50 [2]: 1.7 nM | GI50 [3]: 1.9 nM

C=CC(=O)N1CC(Oc2cc(O[C@@H](C)[C@@H]3CCCN3C)nc(-c3noc([C@@]4(C)CCCc5sc(N)c(C#N)c54)n3)c2)C1 [Ia-3]
IC50 ([1]; Table 36): 1.2 nM | IC50 [2]: 0.5 nM | GI50 [3]: 0.3 nM

C=CC(=O)N1CCC(Oc2cc(-c3noc([C@@]4(C)CCCc5sc(N)c(C#N)c54)n3)nc(N3CCN(C)C[C@@H]3C)c2)CC1 [Ia-79]
IC50 ([1]; Table 36): 4 nM | IC50 [2]: 18.7 nM | GI50 [3]: 7.7 nM

C=CC(=O)N1CCC(Oc2cc(O[C@@H](C)[C@@H]3CCCN3C)nc(-c3noc([C@@]4(C)CCCc5sc(N)c(C#N)c54)n3)c2)CC1 [Ia-4]
IC50 ([1]; Table 36): 1.7 nM | IC50 [2]: 1.1 nM | GI50 [3]: 1 nM

C[C@H](Oc1nc(-c2noc([C@@]3(C)CCCc4sc(N)c(C#N)c43)n2)cc(N2CCN(C/C=C/C(=O)N(C)C)CC2)n1)[C@@H]1CCCN1C [Ia-169]
IC50 ([1]; Table 39): 40 nM | IC50 [2]: 1840 nM | GI50 [3]: 7730 nM
